The values that follow come from paper PMC9481026 (PLoS ONE, 2022).

A short description of series [1]: in vitro. Particulars: African green monkey.
In series [2] the test system is Staphylo-coccus spp. The experiment in a line: organism not typed. Type of series: cell-based. To be noted: for MIC80: read-out: Staphylo-coccus spp. (MIC80, μM).
For series [3], the system named is C. neoformans. The experiment in a line: microbe, parasite or virus in culture. It counts as cell-based. To be noted: for MIC80: Cryptococcus neoformans, read-out: C. neoformans (MIC80, μM).
For series [4], the system named is E. coli. Nature of the series: microbe, parasite or virus in culture. It counts as cell-based. Particulars: for MIC80: Escherichia coli, read-out: E. coli (MIC80, μM).
The test system of series [5] is RVFV strain MP-12. The experiment in a line: microbe, parasite or virus in culture. Type of series: cell-based, Rift Valley fever virus.
Series [6] deals with T1, Human RNase H1 (Homo sapiens, UniProt O60930).
T1 construct: made in house; host or cells: E. coli
T1 sequence (O60930 1-286): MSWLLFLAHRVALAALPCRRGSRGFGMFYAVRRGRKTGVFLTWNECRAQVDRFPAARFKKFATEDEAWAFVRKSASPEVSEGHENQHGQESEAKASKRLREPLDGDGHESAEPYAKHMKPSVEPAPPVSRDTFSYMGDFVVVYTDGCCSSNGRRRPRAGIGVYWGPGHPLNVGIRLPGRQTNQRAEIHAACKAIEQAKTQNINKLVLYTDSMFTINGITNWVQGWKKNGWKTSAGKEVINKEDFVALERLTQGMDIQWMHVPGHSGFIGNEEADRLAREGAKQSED
Nature of the series: biochemical.

For series [7], the system named is RVFV MP-12. Nature of the series: microbe, parasite or virus in culture. It counts as cell-based, Rift Valley fever virus. To be noted: read-out: Estimated EC50.
Series [8] has as its system LACV. Nature of the series: microbe, parasite or virus in culture. It counts as cell-based, La Crosse virus. Particulars: read-out: LACV EC50.
For series [9], the system named is HepDES19.
Series [10] deals with RVFV strain MP-12. Nature of the series: microbe, parasite or virus in culture. It counts as cell-based, Rift Valley fever virus. To be noted: read-out: A549 EC50.
The test system of series [11] is A549 cells.
Series [12] has as its system Vero cells.
The test system of series [13] is ZIKV. The experiment in a line: microbe, parasite or virus in culture. It counts as cell-based, Zika virus. Particulars: read-out: ZIKV EC50.
Series [14] can be described thus: in vitro. Particulars: human.
Where [15] appears, read: Rift Valley fever virus, Vero, read-out: RVFV (EC50, μM).
Where [16] appears, read: read-out: Human RNase H1 (IC50).
[17] abbreviates: Rift Valley fever virus, Vero, 24 h.

The EC50 is the concentration giving half of the maximal effect. What is called IC50 is the concentration that inhibits the measured activity by half.

Converted amounts (≈) assume the structure as drawn. Where two headings read alike, the source gives them in different places. A value given as a limit tells only on which side of the number the result lay.

In the case of `CC(C)c1ccc(O)c(=O)c(O)c1` [Compound 46, β-thujaplicinol, reference compound], the CC50 in [1] (CC50 Vero) was > 120 µM. The MIC80 came to 20 µM (≈ 3.6 µg/mL) in series [2], 8 µM (≈ 1.44 µg/mL) in [3] and 44 µM (≈ 7.93 µg/mL) in series [4]. In addition, in series [5] (setting [15]), the concentration giving a half-maximal response (EC50) came to 13.8 µM.

As for `Cc1cc(O)c(=O)c(O)cc1C(=O)c1ccccc1O` [Compound 311], in [6] (setting [16]), the concentration for half-maximal inhibition (IC50) was found to be 26 µM. The “Staphylo-coccus spp. (MIC80, μM)” value in series [2] amounted to 67 µM. For the same compound, in [3], the “C. neoformans (MIC80, μM)” value was 15 µM. In addition, in series [4], the “E. coli (MIC80, μM)” value turned out to be 30 µM. The values for the half-maximal effective concentration (EC50) in [5] (read-out: EC50) and in [7] were 11.8 µM and 3.16 µM, respectively.

Regarding `CC(=O)c1c(C)cc(O)c(=O)c(O)c1-c1ccccc1` [Compound 330], the concentration giving a half-maximal response (EC50) in series [8] was > 120 µM; in series [10], 42.6 µM; in series [13] it was 32.7 µM; in [5] (read-out: EC50), 10.4 µM; in [5] (read-out: Vero EC50), 10.4 µM; in series [7] it was 2 µM. In [6] (setting [16]), the half-inhibitory concentration (IC50) came to 476 µM. Further, the “Staphylo-coccus spp. (MIC80, μM)” value in series [2] stood at 44 µM. The CC50 in series [9] is 56.2 µM; in series [11] it was > 240 µM; in series [12], > 120 µM. In addition, the “C. neoformans (MIC80, μM)” value in series [3] is 4.0 µM.

Take `CC(=O)c1c(C)cc(O)c(=O)c(O)c1-c1cccc2ccccc12` [Compound 331]: the 50% inhibitory concentration (IC50) in series [6] (setting [16]) turned out to be 448 µM. Also, the “Staphylo-coccus spp. (MIC80, μM)” value in series [2] came out at 67 µM. The CC50 in series [9] was 36.6 µM; in series [11], > 240 µM; in series [12] it was 80.4 µM. The EC50 in series [10] is 17.7 µM; in series [5] (read-out: EC50) it was 15.8 µM; in [5] (read-out: Vero EC50) it was 15.8 µM; in [7] it was 2 µM. In addition, the “C. neoformans (MIC80, μM)” value in [3] came out at 11 µM.

For `Cc1cc(O)c(=O)c(O)cc1C(=O)c1ccc(Br)cc1` [Compound 358], the concentration for half-maximal inhibition (IC50) in series [6] (setting [16]) came out at 43 µM. Further, the figures for the CC50 in [9] and in series [12] were 12.5 µM and > 120 µM, respectively. In [3], the “C. neoformans (MIC80, μM)” value came out at 11 µM. In addition, in series [4], the “E. coli (MIC80, μM)” value was 20 µM. The half-maximal effective concentration (EC50) in series [5] (read-out: RVFV (EC50)) was determined as 9 µM.

In the case of `Cc1cc(O)c(=O)c(O)cc1C(=O)c1ccccc1O` [Compound 359], the CC50 was > 120 µM in series [1] (CC50) and 19.4 µM in series [14]. This compound also displayed a concentration for half-maximal inhibition (IC50) in series [6] of 65 µM. The MIC80 in [3] came out at 24 µM (≈ 6.53 µg/mL). Also, the EC50 was 5.1 µM in series [5] (setting [17]) and 4 µM in series [7] (Rift Valley fever virus, Vero).

`Cc1cc(O)c(=O)c(O)c(O)c1C(=O)c1ccc(-c2ccccc2)cc1` [Compound 362]: the CC50 in series [1] (CC50) came out at 80 µM; in [12] (African green monkey) it was 77.8 µM; in series [14] it was 5.4 µM. Further, the IC50 in series [6] was 212 µM. The MIC80 in [3] was 24 µM (≈ 8.36 µg/mL). Moreover, the 50% effective concentration (EC50) in series [5] (setting [17]) was 2.5 µM; in series [5] (setting [15]), 2.6 µM; in [7] (Rift Valley fever virus, Vero) it was 6 µM.

With `Cc1cc(O)c(=O)c(O)cc1C(=O)NCc1ccccc1` [Compound 388], the IC50 in [6] (setting [16]) stood at 166 µM. Further, the “Staphylo-coccus spp. (MIC80, μM)” value in series [2] is 67 µM. Further, the figures for the CC50 in series [9] and in [12] were 19.8 µM and > 120 µM, respectively. The “C. neoformans (MIC80, μM)” value in series [3] worked out at 11 µM. Moreover, the “E. coli (MIC80, μM)” value in [4] worked out at 67 µM. Further, the results for the EC50 in [5] (read-out: RVFV (EC50)) and in series [7] were 9 µM and 19 µM, respectively.

As to `Cc1cc(O)c(=O)c(O)cc1C(=O)Nc1ccccc1` [Compound 389], the IC50 in series [6] (setting [16]) worked out at 309 µM. In series [2], the “Staphylo-coccus spp. (MIC80, μM)” value came out at 44 µM. Also, the CC50 is 26.5 µM in series [9] and > 120 µM in series [12]. For the same compound, the “C. neoformans (MIC80, μM)” value in [3] is 3.5 µM. In series [4], the “E. coli (MIC80, μM)” value amounted to 44 µM. For the same compound, the EC50 is 8.8 µM in series [5] (read-out: RVFV (EC50)) and 16 µM in [7].

In the case of `CCc1cccc(N=C(C)c2c(C)cc(=O)n(O)c2O)c1` [Compound 518], the EC50 in series [8] was > 120 µM; in [10] it was 17.2 µM; in series [13] it was > 120 µM; in series [5] (read-out: EC50), 19.5 µM; in series [5] (read-out: Vero EC50) it was 20 µM; in series [7] it was 7 µM. The half-inhibitory concentration (IC50) in series [6] (setting [16]) was determined as 436 µM. In [2], the “Staphylo-coccus spp. (MIC80, μM)” value is 67 µM. Further, the CC50 in series [9] is 91.4 µM; in series [11], 16.5 µM; in series [12], > 120 µM. Further, the “C. neoformans (MIC80, μM)” value in [3] worked out at 24 µM.

On to `O=C(Cc1ccccc1)Sc1cccccc1=O` [Compound 680], for which the CC50 in series [1] (CC50) was > 120 µM; in [1] (Estimated CC50), 0.9 µM; in series [1] (Vero CC50), > 120 µM. For the same compound, the EC50 turned out to be 31.3 µM in [8] (La Crosse virus, Vero C1008, 24 h); 11.6 µM in series [10] (Rift Valley fever virus, A549, 24 h); 19.5 µM in series [13] (Zika virus, Vero C1008, 48 h); 23 µM in series [13]; 6.3 µM in [5] (setting [17]); 6.3 µM in [5] (Rift Valley fever virus, Vero, read-out: Vero EC50). In addition, the concentration giving a half-maximal response (EC50) in series [7] (Rift Valley fever virus, Vero) is 0.3 µM. In addition, the IC50 in series [6] came to 652 µM. The MIC80 in series [2] came to 13 µM (≈ 3.33 µg/mL); in series [3], 0.4 µM (≈ 0.103 µg/mL); in series [4], 30 µM (≈ 7.69 µg/mL).

As for `CC[C@H](C)[C@H](NC(=O)OCC1c2ccccc2-c2ccccc21)C(=O)Sc1cccccc1=O` [Compound 686], the concentration giving a half-maximal response (EC50) in series [8] is 45.4 µM; in [10], 7.9 µM; in series [13], > 120 µM; in series [5] (read-out: Vero EC50) it was 6.3 µM; in series [7], 2.16 µM. For the same compound, the IC50 in series [6] (setting [16]) is > 500 µM. In [2], the “Staphylo-coccus spp. (MIC80, μM)” value worked out at 30 µM. Also, the CC50 in [9] is 42.6 µM; in [11], 67.6 µM; in [12], > 120 µM. The “C. neoformans (MIC80, μM)” value in series [3] was 0.85 µM.

As to `O=c1c(O)cccc(S(=O)(=O)c2cccc3ccccc23)c1O` [Compound 698], the 50% inhibitory concentration (IC50) in series [6] (setting [16]) came to 261 µM. The “Staphylo-coccus spp. (MIC80, μM)” value in series [2] turned out to be 20 µM. The CC50 in series [9] was found to be 13.7 µM. The “C. neoformans (MIC80, μM)” value in series [3] came to 38 µM. In [4], the “E. coli (MIC80, μM)” value was 44 µM. Also, the EC50 was 11.7 µM in series [5] (read-out: EC50) and 8 µM in [7].

For the compound `O=c1c(O)cccc(SCc2ccccc2)c1O` [Compound 702], the CC50 is > 120 µM in series [1] (CC50) and 35.6 µM in [1] (CC50 Vero). In series [6], this compound registered a 50% inhibitory concentration (IC50) of 34 µM. Also, the MIC80 in series [2] was 13 µM (≈ 3.38 µg/mL); in series [3] it was 0.55 µM (≈ 0.143 µg/mL); in series [4], 9 µM (≈ 2.34 µg/mL). Moreover, the EC50 was 8.8 µM in [5] (setting [17]) and 7 µM in series [7] (Rift Valley fever virus, Vero).

As to `O=c1c(O)cccc(SCCc2ccccc2)c1O` [Compound 704], the EC50 in series [8] is 89.2 µM; in series [10], 20 µM; in series [13], 19.5 µM; in series [5] (read-out: EC50), 14.3 µM; in series [5] (read-out: Vero EC50), 14.3 µM; in series [7], 14 µM. Besides, the concentration for half-maximal inhibition (IC50) in series [6] (setting [16]) turned out to be 25 µM. For the same compound, in [2], the “Staphylo-coccus spp. (MIC80, μM)” value was found to be 20 µM. In addition, the CC50 in series [9] is 21.6 µM; in series [11], 43 µM; in series [12], > 120 µM. For the same compound, in series [3], the “C. neoformans (MIC80, μM)” value stood at 1.8 µM.

Regarding `CCCCCCSc1cccc(O)c(=O)c1O` [Compound 840], the EC50 in [8] was > 120 µM; in series [10], 15.4 µM; in series [13], > 120 µM; in series [5] (read-out: EC50) it was 31.6 µM; in [5] (read-out: Vero EC50), 31.6 µM; in [7], 14 µM. The half-maximal inhibitory concentration (IC50) in series [6] (setting [16]) was 73 µM. Besides, the figures for the CC50 in series [9], in series [11] and in series [12] were 21.5 µM, 142 µM and > 120 µM, respectively. In [3], the “C. neoformans (MIC80, μM)” value stood at 1.0 µM.
